Experiment: xn = mol fraction of the nth substance listed
Details: Gas, isochoric method

F/C=C/C(F)(F)F [trans-1,3,3,3-tetrafluoropropene] + O=C=O
Details | molar volume [m3/mol]
282.98 K, 1378 kPa, x2 = 0.859 | 0.00149
292.75 K, 1458.4 kPa, x2 = 0.859 | 0.001491
293.11 K, 1207.5 kPa, x2 = 0.733 | 0.001776
293.15 K, 1053.5 kPa, x2 = 0.642 | 0.002057
302.65 K, 741.2 kPa, x2 = 0.254 | 0.002778
302.78 K, 834.7 kPa, x2 = 0.331 | 0.002626
302.95 K, 1530.5 kPa, x2 = 0.859 | 0.001492
303.12 K, 1086.9 kPa, x2 = 0.563 | 0.002066
303.12 K, 1281.1 kPa, x2 = 0.733 | 0.001777
303.15 K, 934.1 kPa, x2 = 0.459 | 0.002372
303.19 K, 1105.4 kPa, x2 = 0.642 | 0.002058
313.09 K, 773.6 kPa, x2 = 0.155 | 0.002926
313.1 K, 879.9 kPa, x2 = 0.331 | 0.002627
313.1 K, 1598.3 kPa, x2 = 0.859 | 0.001492
313.11 K, 824.7 kPa, x2 = 0.254 | 0.00278
313.11 K, 979 kPa, x2 = 0.459 | 0.002373
313.14 K, 1137.1 kPa, x2 = 0.563 | 0.002067
313.15 K, 1337.5 kPa, x2 = 0.733 | 0.001778
313.18 K, 1155.7 kPa, x2 = 0.642 | 0.002059
323.03 K, 1183.9 kPa, x2 = 0.563 | 0.002067
323.04 K, 918.1 kPa, x2 = 0.331 | 0.002628
323.06 K, 861.2 kPa, x2 = 0.254 | 0.002781
323.06 K, 1392.7 kPa, x2 = 0.733 | 0.001778
323.07 K, 808.6 kPa, x2 = 0.155 | 0.002928
323.07 K, 1661.1 kPa, x2 = 0.859 | 0.001493
323.09 K, 1019.8 kPa, x2 = 0.459 | 0.002374
323.12 K, 1201.6 kPa, x2 = 0.642 | 0.00206
332.99 K, 1059.7 kPa, x2 = 0.459 | 0.002375
333.02 K, 897.5 kPa, x2 = 0.254 | 0.002782
333.03 K, 1246.4 kPa, x2 = 0.642 | 0.002061
333.04 K, 1723.3 kPa, x2 = 0.859 | 0.001494
333.05 K, 843.8 kPa, x2 = 0.155 | 0.002929
333.07 K, 955.4 kPa, x2 = 0.331 | 0.002629
333.08 K, 1445.3 kPa, x2 = 0.733 | 0.001779
333.15 K, 1230.3 kPa, x2 = 0.563 | 0.002068
342.9 K, 1274.8 kPa, x2 = 0.563 | 0.002069
342.93 K, 1098.9 kPa, x2 = 0.459 | 0.002376
343.01 K, 1497.2 kPa, x2 = 0.733 | 0.00178
343.02 K, 991.5 kPa, x2 = 0.331 | 0.00263
343.05 K, 877.3 kPa, x2 = 0.155 | 0.00293
343.06 K, 1785.7 kPa, x2 = 0.859 | 0.001494
343.07 K, 1291.7 kPa, x2 = 0.642 | 0.002062
343.2 K, 933 kPa, x2 = 0.254 | 0.002783
352.96 K, 1140 kPa, x2 = 0.459 | 0.002377
353.01 K, 1320.4 kPa, x2 = 0.563 | 0.00207
353.02 K, 910 kPa, x2 = 0.155 | 0.002931
353.03 K, 1336.3 kPa, x2 = 0.642 | 0.002062
353.03 K, 1847.2 kPa, x2 = 0.859 | 0.001495
353.1 K, 1027.7 kPa, x2 = 0.331 | 0.002631
353.12 K, 967.3 kPa, x2 = 0.254 | 0.002784
353.14 K, 1549.7 kPa, x2 = 0.733 | 0.001781
362.89 K, 1178.4 kPa, x2 = 0.459 | 0.002378
362.94 K, 1380.5 kPa, x2 = 0.642 | 0.002063
363.03 K, 1000.8 kPa, x2 = 0.254 | 0.002786
363.05 K, 1365.6 kPa, x2 = 0.563 | 0.002071
363.08 K, 942.8 kPa, x2 = 0.155 | 0.002933
363.08 K, 1908.8 kPa, x2 = 0.859 | 0.001496
363.12 K, 1601.3 kPa, x2 = 0.733 | 0.001781
363.14 K, 1063.4 kPa, x2 = 0.331 | 0.002632
